Results reported in article PMC9106035, “Synthesis, X-ray Structure and Biological Studies of New Self-Assembled Cu(II) Complexes Derived from s-Triazine Schiff Base Ligand” (Molecules, 2022).
In brackets after ≈: the same amount, converted by molar mass. Several values for one entry are separate records, joined by “and”; a condition that tells them apart may be missing. Equal entries are not always repeated. Where two headings read alike, the source gives them in different places. Marks after values point to notes of the source that are not given here.

Tests used:
[1] = DPPH radical scavenging assay; format: biochemical
Procedure: The studied Cu(II) complexes and the free ligands were assessed for their antioxidant activity levels using an α,α-diphenyl-β-picrylhydrazyl (DPPH) scavenging assay, and the results are given in Table 7. […] The results indicated better antioxidant activity for DMAT than for DMOHT, indicating the effect of the substituent at the phenyl moiety on the antioxidant activity level of the free ligand. […] On the other hand, the Cu(II) complexes have improved levels of antioxidant activity compared to the free ligands.
Method S3 DPPH Radical Scavenging Activity:
Freshly prepared (0.004 %w/v) methanol solution of 2,2-diphenyl-1-pi crylhydrazyl (DPPH) radical was prepared and stored at 10 °C in dark place. A methanolic solution of the test compound was prepared using the same procedure. A 40 uL aliquot of the methanol solution was added to 3mL of DPPH solution. Absorbance measurements were recorded immediately with a UV-visible spectrophotometer (Milton Roy, Spectronic 1201). The decrease in absorbance at 515 nm was determined continuously, with data being recorded at 1 min intervals until the absorbance stabilized (16 min). The absorbance of the DPPH radical without antioxidant (control) and the reference compound ascorbic acid were also measured.
All the determinations were performed in three replicates and averaged. The percentage inhibition (PI) of the DPPH radical was calculated according to the […]
PI = [{(AC- AT)/ AC} x 100] (1)
Where AC = Absorbance of the control at t = 0 min and AT = absorbance of the sample+DPPH at t = 16 min. The 50% inhibitory concentration (IC50), the concentration required t o inhibit DPPH radical by 50%, was estimated from graphic plots of the dose respons e curve.

[2] = test system: C. albicans (RCMB 005003(1) ATCC 10231); assay: Agar well diffusion, inhibition zone; format: cell-based; conditions: 10 mg/mL of the tested compounds
Procedure: (§1) The antimicrobial activity of the free ligands and the corresponding Cu(II) complexes was determined against different categories of microbes (Table 5). All inhibition zones were determined at 10 mg/mL of the tested compounds. […] The largest inhibition zones were found for B. subtilis (25 mm), which is very close to the standard Gentamycin (26 mm). […] Complex 1 evidenced antimicrobial activity against all microbes except C. albicans.
(§2) Method S2: Antimi crobial studies a) Tested pathogenic microbes
(§3) The antibacterial a ctivity of the studied ligands and their Cu(II) complexes were evaluated against two Gram positive bacteria ((S. aureus (ATCC 25923) and B. […]
(§4) 0.5). In case of fungi A. fumigatus (RCMB 002008) and C. albicans (RCMB 005003(1) ATCC 10231), the used medium in antagonistic activity against tested fungi is Potato Dextrose Agar, where Fluconazole was used standard antifungal agent. b) Agar well diffusion method
(§5) Synthetic compounds were prepared at concentration 10 mg/mL dissolved in DMSO as stock solutions. Preparation of sterilized Mueller Hinton agar plates seeded with tested pathogenic b acteria occurred. The wells are done by sterilized cork borer in size […]
(§6) comparably with DMSO as control. The plates were incubated at 37°C for 24 h. after incubation period; antimicrobial activity was d etermined by inhibition zones. […]

[3] = test system: A. fumigatus (RCMB 002008); assay: Minimum Inhibitory Concentration (MIC); format: cell-based
Procedure: as §2, §3
(§7) 0.5). In case of fungi A. fumigatus (RCMB 002008) and C. albicans (RCMB 005003(1) ATCC 10231), the used medium in antagonistic activity against tested fungi is Potato Dextrose Agar, where Fluconazole was used standard antifungal agent. […]
(§8) c) Minimum Inhibitory Concentration (MIC)
(§9) Different dilutions of the compounds are inoculat ed with tested pathogenic microbes.
(§10) After incubation period of 96 well microplate, the results are meas ured using microplate reader. To determine at what level the MIC endpoint is established; subculture of test samples at different concentrati ons occurred in nutrient agar plates.

[4] = test system: C. albicans (RCMB 005003(1) ATCC 10231); assay: Minimum Inhibitory Concentration (MIC); format: cell-based; conditions: Candida albicans, read-out: MIC
Procedure: as §2, §3, §7, §8, §9, §10

[5] = test system: A. fumigatus (RCMB 002008); assay: Agar well diffusion, inhibition zone; format: cell-based; conditions: 10 mg/mL of the tested compounds
Procedure: as §1, §2
as §3, with “B. subtilis (RCMB015(1)NRR LB-543)), two Gram negatvie bacteria ((E. coli (ATCC 25922) and P. vulgaris (RCMB 004(1)ATCC 13315)) and two fungi ((A. fumigatus” for “B.”
was used as standard antibacterial agent. The samples maintained in Brain heart infusion (BHI) at 20 °C; […] of each stock–c ulture was added to 3 mL of BHI […]
broth. […]
as §4, §5, §6

[6] = test system: lung carcinoma A-549 cell line; assay: Anticancer activity, MTT viability assay; format: cell-based; conditions: A-549 cells, 24 h, MTT
Procedure: The studied compounds were examined for their anticancer activity against the lung carcinoma A-549 cell line.
Method S4 Evaluation of Cytotoxic activity
The cells were propagated in Dulbecco’s modified Eagle’s medium (DMEM) supplemented with 10% heat-inactivated fetal bovine serum, 1 % L-glutamine, HEPES buffer and 50µg/mL Gentamycin. All cells were maintained at 37 °C in a humidified atmosphere with 5% CO2 and were subcultured tw o times a week.
Cytotoxicity evaluation using viability assay
For cytotoxicity assay, the cells were seeded in 96-well plate at a cell concentration of 1×10^4 cells per well in 100µl of growth medium. Fresh medium containing different concentrations of the test sample was added after 24 h of seeding. Serial two-fold dilutions of the tested chemical compound were added to confluent cell monolayers dispensed into 96-well, flat-bottomed microtiter plates (Falcon, NJ, USA) using a multichannel pipette. The microtiter plates were incubated at 37 °C in a humidified incubator with 5% CO2 for a period of 24 h. Three wells were used for each concentration of the test sample. Control cells were incubated without test sample and with or without DMSO. The little percentage of DMSO present in the […]
cells for at 37°C, for 24 h, the viabl e cells yield was determined by the MTT test.
Briefly, the media was removed from the 96 well plate and replaced with 100 µL of fresh culture DMEM m edium without phenol red then 10 µL of the 12 mM MTT stock solution (5 mg of MTT in 1 mL of PBS) to each well including the untreated controls. The 96 well plates were then incubated at 37°C and 5% CO2 for 4 hours. An 85 µL aliquot of the media was removed from t he wells, and 50 µL of DMSO was added to each well and mixed thoroughly with the pipette and incubated at 37°C for 10 min. Then, the optical density was measured at 590 nm with the microplate reader (SunRise, TECAN, Inc, USA) to determine the number of viable cells and the percentage of viability was calculat ed as [(ODt/ODc)]x100% where ODt i s the mean optical density of wells treated with the tested s ample and ODc is the mean optical density of untreated cells. The relation between surviving cells and drug concentration is plotted to get the survival curve of each tumor cell line after treatment with the specified compound. The 50% inhibitory concentration (IC50), the concentration required to cause t oxic effects in 50% of intact cells, was estimated from graphic plots of the dose response curve for each conc. using Graphpad Prism software (San Diego, […]

[7] = test system: S. aureus (ATCC 25923); assay: Agar well diffusion, inhibition zone; format: cell-based; conditions: 10 mg/mL of the tested compounds
Procedure: as §1, §2
as §3, with “B. subtilis (RCMB015(1)NRR LB-543)), two Gram negatvie bacteria ((E. coli (ATCC 25922) and P. vulgaris (RCMB 004(1)ATCC 13315)) and two fungi ((A. fumigatus” for “B.”
(§11) was used as standard antibacterial agent. The samples maintained in Brain heart infusion (BHI) at 20 °C; […] of each stock–c ulture was added to 3 mL of BHI broth. Overnight cultures were kept for 24 h at 37 °C ± 1 °C and the purity of cultures was checked aft er 24 h of incubation. […]
(§12) b) Agar well diffusion method
as §5, §6

[8] = test system: E. coli (ATCC 25922); assay: Agar well diffusion, inhibition zone; format: cell-based; conditions: 10 mg/mL of the tested compounds
Procedure: as §1, §2
as §3, with “B. subtilis (RCMB015(1)NRR LB-543)), two Gram negatvie bacteria ((E. coli (ATCC 25922) and P. vulgaris (RCMB 004(1)ATCC 13315)) and two fungi ((A. fumigatus” for “B.”
as §11, §12, §5, §6

[9] = test system: B. subtilis (RCMB015(1)NRR LB-543); assay: Agar well diffusion, inhibition zone; format: cell-based; conditions: 10 mg/mL of the tested compounds
Procedure: as §1, §2
as §3, with “B. subtilis (RCMB015(1)NRR LB-543)), two Gram negatvie bacteria ((E. coli (ATCC 25922) and P. vulgaris (RCMB 004(1)ATCC 13315)) and two fungi ((A. fumigatus” for “B.”
as §11, §12, §5, §6

[10] = test system: P. vulgaris (RCMB 004(1)ATCC 13315); assay: Agar well diffusion, inhibition zone; format: cell-based; conditions: 10 mg/mL of the tested compounds
Procedure: as §1, §2
as §3, with “B. subtilis (RCMB015(1)NRR LB-543)), two Gram negatvie bacteria ((E. coli (ATCC 25922) and P. vulgaris (RCMB 004(1)ATCC 13315)) and two fungi ((A. fumigatus” for “B.”
as §11, §12, §5, §6

[11] = test system: S. aureus (ATCC 25923); assay: Minimum Inhibitory Concentration (MIC); format: cell-based
Procedure: as §2
as §3, with “B. subtilis (RCMB015(1)NRR LB-543)), two Gram negatvie bacteria ((E. coli (ATCC 25922) and P. vulgaris (RCMB 004(1)ATCC 13315)) and two fungi ((A. fumigatus” for “B.”
as §11, §8, §9, §10

[12] = test system: E. coli (ATCC 25922); assay: Minimum Inhibitory Concentration (MIC); format: cell-based
Procedure: as §2
as §3, with “B. subtilis (RCMB015(1)NRR LB-543)), two Gram negatvie bacteria ((E. coli (ATCC 25922) and P. vulgaris (RCMB 004(1)ATCC 13315)) and two fungi ((A. fumigatus” for “B.”
as §11, §8, §9, §10

[13] = test system: B. subtilis (RCMB015(1)NRR LB-543); assay: Minimum Inhibitory Concentration (MIC); format: cell-based
Procedure: as §2
as §3, with “B. subtilis (RCMB015(1)NRR LB-543)), two Gram negatvie bacteria ((E. coli (ATCC 25922) and P. vulgaris (RCMB 004(1)ATCC 13315)) and two fungi ((A. fumigatus” for “B.”
as §11, §8, §9, §10

[14] = test system: P. vulgaris (RCMB 004(1)ATCC 13315); assay: Minimum Inhibitory Concentration (MIC); format: cell-based
Procedure: as §2
as §3, with “B. subtilis (RCMB015(1)NRR LB-543)), two Gram negatvie bacteria ((E. coli (ATCC 25922) and P. vulgaris (RCMB 004(1)ATCC 13315)) and two fungi ((A. fumigatus” for “B.”
as §11, §8, §9, §10

O=C1O[C@H]([C@@H](O)CO)C(O)=C1O [Ascorbic Acid, ascorbic acid, reference compound]
DPPH Scavenging % ([1]; Conc. 2.5 μg/mL): 34.57% | DPPH Scavenging % ([1]; Conc. 5 μg/mL): 40.36% | DPPH Scavenging % ([1]; Conc. 10 μg/mL): 48.52% | DPPH Scavenging % ([1]; Conc. 20 μg/mL): 71.38% | DPPH Scavenging % ([1]; Conc. 40 μg/mL): 83.09% | DPPH Scavenging % ([1]; Conc. 80 μg/mL): 90.25% | DPPH Scavenging % ([1]; Conc. 160 μg/mL): 92.31% | DPPH Scavenging % ([1]; Conc. 320 μg/mL): 95.64% | DPPH Scavenging % ([1]; Conc. 640 μg/mL): 97.83% | DPPH Scavenging % ([1]; Conc. 1280 μg/mL): 98.91% | IC50 (DPPH scavenging) ([1]; antioxidant activity): 10.62 ± 0.84 µg/mL (≈ 60.3 µM)

CC(=O)N1CCN(c2ccc(OCC3COC(Cn4ccnc4)(c4ccc(Cl)cc4Cl)O3)cc2)CC1 (stereo not shown) [Ketoconazole, reference compound]
Inhibition zone diameters [2]: 20 ^a mm | MIC [3]: 156.25 ^a μg/mL | MIC ([3]; Aspergillus fumigatus, RCMB002008, read-out: MIC): 156 µg/mL (≈ 294 µM) | MIC [4]: 312 µg/mL (≈ 588 µM) | Inhibition zone diameters [5]: 17 mm and 17 ^a mm

N.N.[Cl][Pt][Cl] [cis-Platin, cis-platin, reference compound]
IC50 [6]: 25 µM

Gentamycin [reference compound]
Inhibition zone diameters [7]: 24 ^b mm | Inhibition zone diameters [8]: 30 ^b mm | Inhibition zone diameters [9]: 26 mm and 26 ^b mm | Inhibition zone diameters [10]: 25 ^b mm | MIC [11]: 9.7 ^b μg/mL | MIC [12]: 4.8 ^b μg/mL | MIC [13]: 4.8 μg/mL and 4.8 ^b μg/mL | MIC [14]: 4.8 ^b μg/mL
